Test results published in patent publication US6358885B1, “Substituted phenylheterocyclic herbicides” (Mississippi State University, priority 1992, dated 2002).

How the values were obtained:
blackgrass [1] = assay: Test B preemergence/postemergence greenhouse plant response rating 0 to 10; format: in vivo, Alopecurus myosuroides; conditions: 0 to 10 scale
Outline: (§1)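 Test chemicals, dissolved in a non-phytotoxic solvent, were applied to soil at planting and, at the same time, over foliage of seedlings at the one to four leaf stage.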

sugar beet = assay: Test C preemergence/postemergence greenhouse plant response rating 0 to 100; format: in vivo, Beta vulgaris; conditions: POSTEMERGENCE; for Plant response rating, Sugar beet: 0 to 100 scale
Outline: (§2)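 Compounds in non-phytotoxic solvent went onto sandy loam before emergence (seeded one day earlier) or onto plants at the one-to-four leaf stage. Duck salad was treated via flood water (~2.5 cm, maintained) over silt loam.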

barley [2] = assay: Test B preemergence/postemergence greenhouse plant response rating 0 to 10; format: in vivo, Hordeum vulgare; conditions: 0 to 10 scale
Outline: as §1

wheat = assay: as above; format: in vivo, Triticum aestivum; conditions: 0 to 10 scale
Outline: as §1

bedstraw [3] = assay: Test C preemergence/postemergence greenhouse plant response rating 0 to 100; format: in vivo, Galium aparine; conditions: POSTEMERGENCE; for Plant response rating, Bedstraw: 0 to 100 scale
Outline: as §2

rape = assay: Test B preemergence/postemergence greenhouse plant response rating 0 to 10; format: in vivo, Brassica napus; conditions: 0 to 10 scale
Outline: as §1

ryegrass = assay: Test C preemergence/postemergence greenhouse plant response rating 0 to 100; format: in vivo, Lolium multiflorum; conditions: POSTEMERGENCE; for Plant response rating Ryegrass: 0 to 100 scale
Outline: as §2

rice = assay: Test B preemergence/postemergence greenhouse plant response rating 0 to 10; format: in vivo, Oryza sativa; conditions: 0 to 10 scale
Outline: as §1

sorghum [4] = assay: as above; format: in vivo, Sorghum bicolor; conditions: 0 to 10 scale
Outline: as §1

blackgrass [5] = assay: Test C preemergence/postemergence greenhouse plant response rating 0 to 100; format: in vivo, Alopecurus myosuroides; conditions: POSTEMERGENCE; for Plant response rating, Blackgrass: 0 to 100 scale
Outline: as §2

pigweed = assay: as above; format: in vivo, Amaranthusretroflexus; conditions: POSTEMERGENCE; for Plant response rating Pigweed: 0 to 100 scale
Outline: as §2

duck salad = assay: Test C flood test plant response rating 0 to 100; format: in vivo, Heteranthera limosa; conditions: for Plant response rating (0 to 100), Duck salad: under POSTEMERGENCE head (flood test species); for Plant response rating Duck salad: flood test species listed under POSTEMERGENCE, 0 to 100 scale
Outline: as §2

barley [6] = assay: Test C preemergence/postemergence greenhouse plant response rating 0 to 100; format: in vivo, Hordeum vulgare; conditions: POSTEMERGENCE; for Plant response rating Barley Igri: 0 to 100 scale
Outline: as §2

cotton = assay: Test B preemergence/postemergence greenhouse plant response rating 0 to 10; format: in vivo, Gossypium hirsutum; conditions: 0 to 10 scale
Outline: as §1

wild buckwheat = assay: Test C preemergence/postemergence greenhouse plant response rating 0 to 100; format: in vivo, Polygonum convolvulus; conditions: POSTEMERGENCE; for Plant response rating, Wild buckwheat: 0 to 100 scale
Outline: as §2

sorghum [7] = assay: as above; format: in vivo, Sorghum bicolor; conditions: POSTEMERGENCE; for Plant response rating, Sorghum: 0 to 100 scale
Outline: as §2

cheatgrass = assay: Test B preemergence/postemergence greenhouse plant response rating 0 to 10; format: in vivo, Bromus secalinus; conditions: 0 to 10 scale
Outline: as §1

bedstraw [8] = assay: as above; format: in vivo, Galium aparine; conditions: 0 to 10 scale
Outline: as §1

## C=CCN1C(=O)COc2cc(F)c(-c3nn4c(c3Br)CCCC4)cc21 [Compound 41]
Blackgrass [1]; POSTEMERGENCE, Rate 50 g/ha
  Plant response rating, Blackgrass: 2
Blackgrass [1]; POSTEMERGENCE, Rate 200 g/ha
  Plant response rating, Blackgrass: 5
Blackgrass [1]; PREEMERGENCE, Rate 50 g/ha
  Plant response rating, Blackgrass: 6
Blackgrass [1]; Rate 200 g/ha, PREEMERGENCE
  Plant response rating, Blackgrass: 7
Sugar beet; 62 g/ha
  Plant response rating, Sugar beet: 100
Sugar beet; 125 g/ha
  Plant response rating, Sugar beet: 100
Sugar beet; Rate 16 g/ha
  Plant response rating (0 to 100), Sugar beet: 100
Sugar beet; Rate 31 g/ha
  Plant response rating (0 to 100), Sugar beet: 100
Barley [2]; POSTEMERGENCE, Rate 50 g/ha
  Plant response rating, Barley: 5
Barley [2]; POSTEMERGENCE, Rate 200 g/ha
  Plant response rating, Barley: 5
Barley [2]; PREEMERGENCE, Rate 50 g/ha
  Plant response rating, Barley: 1
Barley [2]; Rate 200 g/ha, PREEMERGENCE
  Plant response rating, Barley: 1
wheat; POSTEMERGENCE, Rate 50 g/ha
  Plant response rating, Wheat: 5
wheat; PREEMERGENCE, Rate 50 g/ha
  Plant response rating, Wheat: 1
wheat; Rate 200 g/ha, POSTEMERGENCE
  Plant response rating, Wheat: 5
wheat; Rate 200 g/ha, PREEMERGENCE
  Plant response rating, Wheat: 3
Bedstraw [3]; 62 g/ha
  Plant response rating, Bedstraw: 80
Bedstraw [3]; 125 g/ha
  Plant response rating, Bedstraw: 90
Bedstraw [3]; Rate 16 g/ha
  Plant response rating (0 to 100), Bedstraw: 70
Bedstraw [3]; Rate 31 g/ha
  Plant response rating (0 to 100), Bedstraw: 70
rape; POSTEMERGENCE, Rate 50 g/ha
  Plant response rating, Rape: 10
rape; PREEMERGENCE, Rate 50 g/ha
  Plant response rating, Rape: 10
rape; Rate 200 g/ha, POSTEMERGENCE
  Plant response rating, Rape: 10
rape; Rate 200 g/ha, PREEMERGENCE
  Plant response rating, Rape: 10
ryegrass; 62 g/ha
  Plant response rating Ryegrass: 30
ryegrass; 125 g/ha
  Plant response rating Ryegrass: 40
ryegrass; Rate 16 g/ha
  Plant response rating (0 to 100), Ryegrass: 10
ryegrass; Rate 31 g/ha
  Plant response rating (0 to 100), Ryegrass: 20
rice; POSTEMERGENCE, Rate 50 g/ha
  Plant response rating, Rice: 6
rice; PREEMERGENCE, Rate 50 g/ha
  Plant response rating, Rice: 0
rice; Rate 200 g/ha, POSTEMERGENCE
  Plant response rating, Rice: 7
rice; Rate 200 g/ha, PREEMERGENCE
  Plant response rating, Rice: 0
Sorghum [4]; POSTEMERGENCE, Rate 50 g/ha
  Plant response rating, Sorghum: 5
Sorghum [4]; PREEMERGENCE, Rate 50 g/ha
  Plant response rating, Sorghum: 0
Sorghum [4]; Rate 200 g/ha, POSTEMERGENCE
  Plant response rating, Sorghum: 6
Sorghum [4]; Rate 200 g/ha, PREEMERGENCE
  Plant response rating, Sorghum: 1
Blackgrass [5]; 62 g/ha
  Plant response rating, Blackgrass: 50
Blackgrass [5]; 125 g/ha
  Plant response rating, Blackgrass: 60
Blackgrass [5]; Rate 16 g/ha
  Plant response rating (0 to 100), Blackgrass: 40
Blackgrass [5]; Rate 31 g/ha
  Plant response rating (0 to 100), Blackgrass: 40
pigweed; 62 g/ha
  Plant response rating Pigweed: 100
pigweed; 125 g/ha
  Plant response rating Pigweed: 100
pigweed; Rate 16 g/ha
  Plant response rating (0 to 100), Pigweed: 90
pigweed; Rate 31 g/ha
  Plant response rating (0 to 100), Pigweed: 100
Duck salad; Rate 16 g/ha
  Plant response rating (0 to 100), Duck salad: 0
Duck salad; Rate 31 g/ha
  Plant response rating (0 to 100), Duck salad: 10
Duck salad; 62 g/ha
  Plant response rating Duck salad: 30
Duck salad; 125 g/ha
  Plant response rating Duck salad: 30
Barley [6]; 62 g/ha
  Plant response rating Barley Igri: 50
Barley [6]; 125 g/ha
  Plant response rating Barley Igri: 60
Barley [6]; Rate 16 g/ha
  Plant response rating (0 to 100), Barley Igri: 30
Barley [6]; Rate 31 g/ha
  Plant response rating (0 to 100), Barley Igri: 40
cotton; POSTEMERGENCE, Rate 50 g/ha
  Plant response rating, Cotton: 10
cotton; POSTEMERGENCE, Rate 200 g/ha
  Plant response rating, Cotton: 10
cotton; PREEMERGENCE, Rate 50 g/ha
  Plant response rating, Cotton: 4
cotton; Rate 200 g/ha, PREEMERGENCE
  Plant response rating, Cotton: 2
Wild buckwheat; 62 g/ha
  Plant response rating, Wild buckwheat: 100
Wild buckwheat; 125 g/ha
  Plant response rating, Wild buckwheat: 100
Wild buckwheat; Rate 16 g/ha
  Plant response rating (0 to 100), Wild buckwheat: 95
Wild buckwheat; Rate 31 g/ha
  Plant response rating (0 to 100), Wild buckwheat: 100
Sorghum [7]; 62 g/ha
  Plant response rating, Sorghum: 40
Sorghum [7]; 125 g/ha
  Plant response rating, Sorghum: 50
Sorghum [7]; Rate 16 g/ha
  Plant response rating (0 to 100), Sorghum: 20
Sorghum [7]; Rate 31 g/ha
  Plant response rating (0 to 100), Sorghum: 30
cheatgrass; POSTEMERGENCE, Rate 50 g/ha
  Plant response rating, Cheatgrass: 3
cheatgrass; POSTEMERGENCE, Rate 200 g/ha
  Plant response rating, Cheatgrass: 5
cheatgrass; PREEMERGENCE, Rate 50 g/ha
  Plant response rating, Cheatgrass: 3
cheatgrass; Rate 200 g/ha, PREEMERGENCE
  Plant response rating, Cheatgrass: 5
Bedstraw [8]; POSTEMERGENCE, Rate 50 g/ha
  Plant response rating, Bedstraw: 10
Bedstraw [8]; POSTEMERGENCE, Rate 200 g/ha
  Plant response rating, Bedstraw: 10
Bedstraw [8]; PREEMERGENCE, Rate 50 g/ha
  Plant response rating, Bedstraw: 2
Bedstraw [8]; Rate 200 g/ha, PREEMERGENCE
  Plant response rating, Bedstraw: 10
